{"source": "patent US20070105788A1", "about": "“Azithromycin for treatment of granulomatous rosacea” (priority 2005, published 2007)", "tested_on": "granulomatous rosacea", "assay": "Case reports: treatment of patients with granulomatous rosacea", "format": "in vivo, human", "conditions": "for clinical response of granulomatous rosacea at follow-up: two months later", "method": "A patient presented with severe inflammatory diffuse facial granulomatous rosacea. The condition had been present for 6 years.\nThey were started on oral azithromycin 500 mg daily dose together with an estrogenic hormone, norgestimate/ethinyl estradiol (ORTHO TRI-CYCLEN®, Ortho-McNeil Pharmaceutical, Raritan, N.J.). […] Treatment was continued with a follow-up examination expected in another 6 to 8 weeks.\nA patient presented with complaints of a “facial rash”. […] They were started on oral cephalexin. […] Treatment with dicloxicillin was initiated.\nOral azithromycin at a dosage of 500 mg daily was started, together with daily topical application of a sodium sulfacetamide 10% with sulfur 5% cream and a metronidazole cream.\nA person presented with a facial rash.\nTreatment was initiated with a variety of topical medications, including metronidazole gel, Elidel® (pimecrolimus, Novartis Pharmaceuticals Corp., New York, N.Y.), 2.4% hydrocortisone, and desonide cream.\nThe next therapy tried was oral doxycycline 100 mg twice daily. […] The patient was then started on Accutane® (Hoffman-LaRoche Inc., Nutley, N.J.) at an initial dosage of 20 mg per day, which was subsequently raised to 40 mg per day and then to 60 mg per day.\nTreatment was subsequently initiated with azithromycin as the sole therapy, administered orally at a dosage of 250 mg daily for three weeks.", "data": [{"smiles": "CC[C@H]1OC(=O)[C@H](C)[C@@H](O[C@H]2C[C@@](C)(OC)[C@@H](O)[C@H](C)O2)[C@H](C)[C@@H](O[C@@H]2O[C@H](C)C[C@H](N(C)C)[C@H]2O)[C@](C)(O)C[C@@H](C)CN(C)[C@H](C)[C@@H](O)[C@]1(C)O", "note": "[azithromycin]", "values": [{"measurement": "clinical response of granulomatous rosacea at follow-up", "setting": "Example 1, azithromycin reduced to 500 mg every other day plus daily topical azaleic acid", "result": "remained clear"}, {"measurement": "clinical response of granulomatous rosacea", "setting": "Example 1, oral azithromycin 500 mg daily together with norgestimate/ethinyl estradiol, 9 weeks after initiation", "result": "greatly improved with only minimal residual facial erythema and no residual inflammatory lesions"}, {"measurement": "clinical response of granulomatous rosacea at follow-up", "setting": "Example 2, azithromycin decreased to 500 mg every other day, topicals continued", "result": "no evidence of residual rosacea"}, {"measurement": "clinical response of granulomatous rosacea", "setting": "Example 2, oral azithromycin 500 mg daily with topical sodium sulfacetamide 10%/sulfur 5% cream and metronidazole cream, six weeks after initiation", "result": "minimally perceptible residual erythema and papulation"}, {"measurement": "clinical response of granulomatous rosacea", "setting": "Example 3, azithromycin as sole therapy, orally 250 mg daily for three weeks", "result": "remarkable improvement"}, {"measurement": "recurrence of granulomatous rosacea", "setting": "Example 3, following cessation of azithromycin therapy (250 mg daily for three weeks)", "result": "has not had a recurrence"}, {"measurement": "efficacy on signs and symptoms of granulomatous rosacea (general statement)", "setting": "administered systemically for a period of several weeks or more", "result": "effective"}]}, {"smiles": "CC1=C(C(=O)O)N2C(=O)[C@@H](NC(=O)[C@H](N)c3ccccc3)[C@H]2SC1", "note": "[cephalexin]", "values": [{"measurement": "clinical response of facial rash (later diagnosed granulomatous rosacea)", "setting": "Example 2, patient, oral cephalexin, one month later", "result": "worsening pustules and tender nodules"}]}, {"smiles": "Cc1onc(-c2c(Cl)cccc2Cl)c1C(=O)N[C@@H]1C(=O)N2[C@@H]1SC(C)(C)[C@@H]2C(=O)O", "note": "[dicloxicillin]", "values": [{"measurement": "clinical response of facial rash (later diagnosed granulomatous rosacea)", "setting": "Example 2, dicloxicillin, six weeks later", "result": "persistent severe to worsening involvement"}]}]}
